# According to ChEMBL document CHEMBL1135871, “Sordarin oxazepine derivatives as potent antifungal agents” (2002):
# How the values were obtained:
# Type in all cases: functional
# Candida albicans = assay: Minimum inhibitory concentration required to inhibit 90-100%growth of Candida albicans
# Nakaseomyces glabratus = assay: Minimum inhibitory concentration required to inhibit 90-100%growth of Candida glabrata
# Cryptococcus neoformans = assay: Minimum inhibitory concentration required to inhibit 90-100% growth of Cryptococcus neoformans
Structure (SMILES),MIC (Candida albicans) [µg/mL],MIC (Nakaseomyces glabratus) [µg/mL],MIC (Cryptococcus neoformans) [µg/mL]
CC(C)C1=CC2CC3(C=O)[C@@H]4CC[C@@H](C)[C@H]4CC2(CO[C@@H]2O[C@H](C)CN(CCC(F)(F)F)C[C@@H]2O)[C@]13C(=O)O,1,32,> 128
C=C(Cl)CN1C[C@H](OCC23C[C@@H]4[C@H](C)CC[C@H]4C4(C=O)CC2C=C(C(C)C)[C@@]34C(=O)O)O[C@H](C)C1,< 0.06,0.125,16
CC(C)C1=CC2CC3(C=O)[C@@H]4CC[C@@H](C)[C@H]4CC2(CO[C@@H]2O[C@H](C)CN(Cc4cccs4)C[C@@H]2O)[C@]13C(=O)O,2,128,32
C=C(Cl)CN1C[C@@H](C)O[C@@H](OCC23C[C@@H]4[C@H](C)CC[C@H]4C4(C=O)CC2C=C(C(C)C)[C@@]34C(=O)O)[C@@H](O)C1,0.5,32,4
Cc1coc(CN2C[C@@H](C)O[C@@H](OCC34C[C@@H]5[C@H](C)CC[C@H]5C5(C=O)CC3C=C(C(C)C)[C@@]45C(=O)O)[C@@H](O)C2)c1,2,> 128,32
CC(C)C1=CC2CC3(C=O)[C@@H]4CC[C@@H](C)[C@H]4CC2(CO[C@@H]2O[C@H](C)CN(Cc4ccccc4Cl)C[C@@H]2O)[C@]13C(=O)O,2,> 128,128
CO[C@H]1[C@@H](O)[C@H](O)[C@H](OC[C@@]23C[C@@H]4[C@H](C)CC[C@H]4[C@@]4(C=O)CC2C=C(C(C)C)[C@@]34C(=O)O)O[C@@H]1C [SORDARIN],16,> 128,8
CC(C)C1=CC2CC3(C=O)[C@@H]4CC[C@@H](C)[C@H]4CC2(CO[C@@H]2O[C@H](C)CN(CC4CC4)C[C@@H]2O)[C@]13C(=O)O,> 16,> 128,> 128
C=C(Cl)CN1CC[C@H](OCC23C[C@@H]4[C@H](C)CC[C@H]4C4(C=O)CC2C=C(C(C)C)[C@@]34C(=O)O)O[C@H](C)C1,0.125,2,1
COc1ccc(CN2C[C@@H](C)O[C@@H](OCC34C[C@@H]5[C@H](C)CC[C@H]5C5(C=O)CC3C=C(C(C)C)[C@@]45C(=O)O)[C@@H](O)C2)cc1,< 0.06,1,> 128
CC(C)C1=CC2CC3(C=O)[C@@H]4CC[C@@H](C)[C@H]4CC2(CO[C@@H]2O[C@H](C)CN(CCC4=CCCCC4)C[C@@H]2O)[C@]13C(=O)O,2,> 128,> 128
CC(C)C1=CC2CC3(C=O)[C@@H]4CC[C@@H](C)[C@H]4CC2(CO[C@@H]2O[C@H](C)CN(CCc4ncc[nH]4)C[C@@H]2O)[C@]13C(=O)O,> 128,> 128,> 128
C=C(Cl)CN1C[C@@H](C)O[C@@H](OCC23C[C@@H]4[C@H](C)CC[C@H]4C4(C=O)CC2C=C(C(C)C)[C@@]34C(=O)O)[C@@H](OC(C)=O)C1,8,16,> 128
C=CCN1C[C@@H](C)O[C@@H](OCC23C[C@@H]4[C@H](C)CC[C@H]4C4(C=O)CC2C=C(C(C)C)[C@@]34C(=O)O)[C@@H](O)C1,8,128,> 128
C=C(Cl)CN1C[C@@H](C)O[C@@H](OCC23C[C@@H]4[C@H](C)CC[C@H]4C4(C=O)CC2C=C(C(C)C)[C@@]34C(=O)O)[C@@H](OC)C1,4,64,> 128
C=C(C)CN1C[C@@H](C)O[C@@H](OCC23C[C@@H]4[C@H](C)CC[C@H]4C4(C=O)CC2C=C(C(C)C)[C@@]34C(=O)O)[C@@H](O)C1,0.125,64,> 64
C=C(Cl)CN1C[C@@H](C)O[C@@H](OCC23C[C@@H]4[C@H](C)CC[C@H]4C4(C=O)CC2C=C(C(C)C)[C@@]34C(=O)O)[C@H](F)C1,< 0.06,2,16
CC(C)C1=CC2CC3(C=O)[C@@H]4CC[C@@H](C)[C@H]4CC2(CO[C@@H]2O[C@H](C)[C@@H](O)[C@@H](O)[C@@H]2O)[C@]13C(=O)O,> 128,> 128,> 128
COCCN1C[C@@H](C)O[C@@H](OCC23C[C@@H]4[C@H](C)CC[C@H]4C4(C=O)CC2C=C(C(C)C)[C@@]34C(=O)O)[C@@H](O)C1,16,> 128,> 128
COc1ccc(N2C[C@@H](C)O[C@@H](OCC34C[C@@H]5[C@H](C)CC[C@H]5C5(C=O)CC3C=C(C(C)C)[C@@]45C(=O)O)[C@@H](O)C2)cc1,2,64,> 128
